Assay results as given in US12642768B2, “Lipid nanoparticles” (Beijing Jitai Life Sciences Ltd, priority 2022, dated 2026).

Tested on: not listed separately
Experiment: Particle size and PDI of lipid nanoparticles by dynamic light scattering
Assay type: physicochemical
Conditions: LNP 50:38.5:10:1.5, N/P 6, luciferase mRNA
Procedure: (§1) Lipid nanoparticles were prepared by (1) dissolving and mixing ionizable lipid compounds, cholesterol, phospholipids and polyethylene glycolated lipids in ethanol at (molar percentages) 50%, 38.5%, 10% and 1.5%, respectively; (2) dissolving the mRNA active ingredient in 25 mM sodium acetate solution (pH=4.5); (3) using an automated high-throughput microfluidic system to mix the organic phase containing the lipid mixture and the aqueous phase containing the mRNA component in the flow ratio range of 1:1 to 1:4 at a mixing speed of 10 mL/min to 18 mL/min; (4) the prepared lipid nanoparticles (N/P ratio of 6) were diluted with phosphate buffer solution and the nanoparticle solutions were ultrafiltered to the original preparation volume using ultrafiltration tubes (purchased from Millipore) with a cut-off molecular weight of 30 kDa; and (5) the obtained nanoparticles were filtered through a sterile 0.2 μm filter membrane and then stored in a sealed glass vial at low temperature.
The particle size and particle size dispersity index (PDI) of the prepared lipid nanoparticles were measured using a Zetasizer Pro (purchased from Malvern Instruments Ltd) and a DynaPro NanoStar (purchased from Wyatt) dynamic light scattering instrument. The degree of RNA encapsulation by lipid nanoparticles was characterized by the Encapsulation Efficiency %, which reflects the degree of binding of lipid nanoparticles to RNA fragments. This parameter was measured by the method of Quant-it™ RiboGreen RNA Assay (purchased from Invitrogen). Lipid nanoparticle samples were diluted in TE buffer (10 mM Tris-HCl, 1 mM EDTA, pH=7.5). A portion of the sample solution was removed, to which 0.5% Triton (Triton X-100) was added, and then allowed to stand at 37° C. for 30 minutes. Immediately after the addition of RIBOGREEN® reaction solution, the fluorescence values were read on a Varioskan LUX multifunctional microplate reader (purchased from Thermofisher) at 485 nm for absorption and 528 nm for emission to give the encapsulation efficiency values.

SMILES | Particle size dispersity (PDI)
CCCCCCCCCCSC(=O)C(C)(C)CCCCCC(CCCCCC(C)(C)C(=O)OCCCCCCCCC)OC(=O)CCCN(C)C (centres unmarked) [Compound 40] | 0.05
CCCCCCCCCOC(=O)C(C)(C)CCCCCC(CCCCCC(C)(C)C(=O)SCCCCCCCCC)OC(=O)CCCN(C)C (centres unmarked) [Compound 41] | 0.05
CCCCCCC#CCOC(=O)C(C)(C)CCCCCC(CCCCCC(C)(C)C(=O)OCCCCCCCCC)OC(=O)CCCN(C)C (centres unmarked) [Compound 42] | 0.07
CCCCCCCCCOC(=O)C(C)(C)CCCCCC(CCCCCC(C)(C)C(=O)OCC(CCCCC)CCCCCCC)OC(=O)CCCN(C)C (centres unmarked) [Compound 46] | 0.09
CCCCCCCCCCOC(=O)C(C)(C)CCCCCC(CCCCCC(C)(C)C(=O)OCCCCCCCCCC)OC(=O)CCN1CCOCC1 [Compound 90] | 0.05
CCCCCCCCCCOC(=O)C(C)(C)CCCCCC(CCCCCC(C)(C)C(=O)OCCCCCCCCCC)OC(=O)CN1CCOCC1 [Compound 91] | 0.05
CCCCCCCCCCOC(=O)C(C)(C)CCCCCC(CCCCCC(C)(C)C(=O)OCCCCCCCCCC)OC(=O)CCN1CCCC1 [Compound 92] | 0.05
CCCCCCCCCOC(=O)CC(C)(C)CCCCC(CCCCC(C)(C)CC(=O)OCCCCCCCCC)OC(=O)CCCN(C)C [Compound 97] | 0.25
CCCCCCC/C=C\COC(=O)CC(C)(C)CCCCC(CCCCC(C)(C)CC(=O)OCC(CCCCC)CCCCCCC)OC(=O)CCCN(C)C (centres unmarked) [Compound 98] | 0.13
CCCCCCCCCCOC(=O)C(C)(C)CCCCCC(CCCCCC(C)(C)C(=O)OCCCCCCCCCC)OC(=O)C1CCN(C)CC1 [Compound 99] | 0.05
CCCCCCCCOC(=O)C(C)(C)CCCCCC(CCCCCC(C)(C)C(=O)OCCCCCCCC)OC(=O)C1CCN(C)CC1 [Compound 100] | 0.07
CCCCCCCCOC(=O)C(C)(C)CCCCCC(CCCCCC(C)(C)C(=O)OCCCCCCCC)OC(=O)C1CCN(C(C)C)CC1 [Compound 101] | 0.06
CCCCCCCCCOC(=O)C(C)(C)CCCCCC(CCCCCC(C)(C)C(=O)OCCCCCCCCC)OC(=O)C1CCN(C)CC1 [Compound 102] | 0.03
CCCCCCCCCOC(=O)C(C)(C)CCCCCC(CCCCCC(C)(C)C(=O)OCCCCCCCCC)OC(=O)C1CCN(C(C)C)CC1 [Compound 103] | 0.04
CCCCCCCCCCSC(=O)C(C)(C)CCCCCC(CCCCCC(C)(C)C(=O)SCCCCCCCCCC)OC(=O)C1CCN(C)CC1 [Compound 104] | 0.06
CCCCCCCCCCSC(=O)C(C)(C)CCCCCC(CCCCCC(C)(C)C(=O)SCCCCCCCCCC)OC(=O)C1CCN(C(C)C)CC1 [Compound 105] | 0.05
CCCCCCCCCSC(=O)C(C)(C)CCCCCC(CCCCCC(C)(C)C(=O)SCCCCCCCCC)OC(=O)C1CCN(C)CC1 [Compound 106] | 0.05
CCCCCCCCCSC(=O)C(C)(C)CCCCCC(CCCCCC(C)(C)C(=O)SCCCCCCCCC)OC(=O)C1CCN(C(C)C)CC1 [Compound 107] | 0.05
CCCCCCCCCSC(=O)C(C)(C)CCCCCC(CCCCCC(C)(C)C(=O)SCCCCCCCCC)OC(=O)CC1CCN(C)CC1 [Compound 108] | 0.05
CCCCCCCCCSC(=O)C(C)(C)CCCCCC(CCCCCC(C)(C)C(=O)SCCCCCCCCC)OC(=O)CC1CCN(CC)CC1 [Compound 109] | 0.06

SMILES | Particle size dispersity (PDI)
CCCCCCCCCSC(=O)C(C)(C)CCCCCC(CCCCCC(C)(C)C(=O)SCCCCCCCCC)OC(=O)CC1CCN(CCO)CC1 [Compound 110] | 0.01
CCCCCCCCCOC(=O)C(C)(C)CCCCCC(CCCCCC(C)(C)C(=O)OCC(CCCCC)CCCCCCC)OC(=O)CC1CCN(C)CC1 (centres unmarked) [Compound 111] | 0.06
CCCCCCCCCSC(=O)C(C)(C)CCCCCC(CCCCCC(C)(C)C(=O)OCC(CCCCC)CCCCCCC)OC(=O)CC1CCN(C)CC1 (centres unmarked) [Compound 112] | 0.08
CCCCCCCCCOC(=O)C(C)(C)CCCCCC(CCCCCC(C)(C)C(=O)OCCCCCCCCC)OC(=O)CC1CCN(CCO)CC1 [Compound 113] | 0.03
CCCCCCCCCOC(=O)C(C)(C)CCCCCC(CCCCCC(C)(C)C(=O)OCC(CCCCC)CCCCCCC)OC(=O)CC1CCN(CCO)CC1 (centres unmarked) [Compound 114] | 0.04
CCCCCCCC#CCOC(=O)C(C)(C)CCCCCC(CCCCCC(C)(C)C(=O)OCCCC(CCCCC)CCCCC)OC(=O)CCCN(C)C (centres unmarked) [Compound 115] | 0.04
CCCCCCCC#CCOC(=O)C(C)(C)CCCCCC(CCCCCC(C)(C)C(=O)OCC(CCCCC)CCCCCCC)OC(=O)CCCN(C)C (centres unmarked) [Compound 116] | 0.05
CCCCC(CC#CCOC(=O)C(C)(C)CCCCCC(CCCCCC(C)(C)C(=O)OCC#CCC(CCCC)CCCC)OC(=O)CCCN(C)C)CCCC [Compound 117] | 0.06
CCCCCCCCCOC(=O)C(C)(C)CCCCCC(CCCCCC(C)(C)C(=O)OCC#CC(CCCCCC)CCCCCC)OC(=O)CCCN(C)C (centres unmarked) [Compound 118] | 0.07
CCCCCCCCCSC(=O)C(C)(C)CCCCCC(CCCCCC(C)(C)C(=O)OCC#CCCC(CCCC)CCCC)OC(=O)CCCN(C)C (centres unmarked) [Compound 119] | 0.05
CCCCCCCCCOC(=O)C(C)(C)CCCCC(CCCCC(C)(C)C(=O)OCC(CCCCC)CCCCCCC)OC(=O)CCCN(C)C (centres unmarked) [Compound 122] | 0.07
CCCCCCCCCCOC(=O)C(C)(C)CCCCC(CCCCC(C)(C)C(=O)OCC(CCCCC)CCCCCCC)OC(=O)CCCN(C)C (centres unmarked) [Compound 123] | 0.05
CCCCCCCCCOC(=O)C(C)(C)CCCCCCC(CCCCCCC(C)(C)C(=O)OCC(CCCCC)CCCCCCC)OC(=O)CCCN(C)C (centres unmarked) [Compound 125] | 0.07
CCCCCCCCCOC(=O)C(C)(C)CCCCCCC(CCCCCCC(C)(C)C(=O)OCC(CCCCC)CCCCCCC)OC(=O)CCCCN(C)C (centres unmarked) [Compound 126] | 0.06
CC(C)CCCCCCCOC(=O)CCC(C)(C)CCCC(CCCC(C)(C)CCC(=O)OCCCCCCCC(C)C)OC(=O)CCCN(C)C [Compound 127] | 0.05
CCCCCCC(CCCCCC)CCOC(=O)CCC(C)(C)CCCC(CCCC(C)(C)CCC(=O)OCCC(CCCCCC)CCCCCC)OC(=O)CCCN(C)C [Compound 128] | 0.05
CCCCCCCC(CCCCCCC)COC(=O)CCC(C)(C)CCCC(CCCC(C)(C)CCC(=O)OCC(CCCCCCC)CCCCCCC)OC(=O)CCCN(C)C [Compound 129] | 0.06
CCCCCCCCCOC(=O)CCCCCCC(CCCCCCC(=O)OCCCCCCCCC)OC(=O)CCCN(C)C [D1, reference compound] | 0.18
CCCCCCCCCOC(=O)CCCCCCC(CCCCCCC(=O)OCC(CCCCC)CCCCCCC)OC(=O)CCCN(C)C (centres unmarked) [D2, reference compound] | 0.20
CCCCC/C=C\C/C=C\CCCCCCCCC(CCCCCCCC/C=C\C/C=C\CCCCC)OC(=O)CCCN(C)C [DLin-MC3-DMA, reference compound] | 0.04

Same assay, conditions: LNP ionizable lipid:cholesterol:DSPC:DMG-PEG2000 50:38.5:10:1.5, N/P 6, luciferase mRNA

SMILES | Particle size (nm)
CCCCCCCCCSC(=O)C(C)(C)CCCCCC(CCCCCC(C)(C)C(=O)OCC#CCCC(CCCC)CCCC)OC(=O)CCCN(C)C (centres unmarked) [Compound 119] | 80.98 nm

Tested on: not listed separately
Experiment: Encapsulation efficiency by Quant-it RiboGreen RNA Assay
Assay type: physicochemical
Conditions: LNP 50:38.5:10:1.5, N/P 6, luciferase mRNA
Procedure: as §1
The particle size and particle size dispersity index (PDI) of the prepared lipid nanoparticles were measured using a Zetasizer Pro (purchased from Malvern Instruments Ltd) and a DynaPro NanoStar (purchased from Wyatt) dynamic light scattering instrument. […] This parameter was measured by the method of Quant-it™ RiboGreen RNA Assay (purchased from Invitrogen). […]

SMILES | Encapsulation efficiency (%)
CCCCCCCCCSC(=O)C(C)(C)CCCCCC(CCCCCC(C)(C)C(=O)OCC#CCCC(CCCC)CCCC)OC(=O)CCCN(C)C (centres unmarked) [Compound 119] | 86.92%
CCCCC/C=C\C/C=C\CCCCCCCCC(CCCCCCCC/C=C\C/C=C\CCCCC)OC(=O)CCCN(C)C [DLin-MC3-DMA, reference compound] | 95.62%

Tested on: C57BL/6 mice
Experiment: Animal experiment: in vivo bioluminescence after i.v. lipid nanoparticles encapsulated with luciferase mRNA
Conditions: compound 20 vs. D1, compound 46 vs. D2
Procedure: The delivery effect and safety of nanoparticles encapsulated with luciferase mRNA (Trilink, L-7202) in mice were evaluated. The test mice were SPF-grade C57BL/6 mice, female, 6-8 weeks old, weighing 18-22 g, and were purchased from SPF (Beijing) Biotechnology Co., Ltd. All animals were acclimatized for more than 7 days prior to the experiment, and had free access to food and water during the experiment. The conditions include alternating light and dark for 12/12 h, the indoor temperature of 20-26° C. and the humidity of 40-70%. The mice were randomly grouped. […] The anesthetized mice were placed in IVIS for fluorescence imaging, and data acquisition and analysis were performed on the concentrated distribution area of fluorescence.
The in vivo delivery efficiency of lipid nanoparticle carriers was expressed as the mean values of fluorescence intensity and total photon count in different animals within the same subject group, as shown in Table 5. Higher values of fluorescence intensity and total photon count indicate higher in vivo delivery efficiency of this mRNA fragment by lipid nanoparticles. […]

SMILES | in vivo delivery efficiency compared with the molecule without tetramethyl
CCCCCCCCCOC(=O)C(C)(C)CCCCCC(CCCCCC(C)(C)C(=O)OCC(CCCCC)CCCCCCC)OC(=O)CCCN(C)C (centres unmarked) [Compound 46] | significantly increased in vivo delivery efficiency
